Experiments:
[1] = tested on: Lymphocytic Leukemia P388; assay: "PS" test, Lymphocytic Leukemia P388 Protocol 1.200; assay type: in vivo; conditions: mice; for RANGE OF % T/C: "PS" test
Procedure: The in vivo "PS" tests were carried out on mice according to "Lymphocytic Leukemia P388--Protocol 1.200", published in Cancer Chemotherapy Reports, Part 3, Vol. 3, No. 2, page 9, (September 1972) with results reported in terms of percent survivals of test versus control animals (%T/C).
(§1) As one example, the "PS" and "Bl" tests noted above involved subcutaneous administration of the test compounds in simple water solution forms. It is expected that water solutions of bouvardin and deoxybouvardin would ordinarily be stabilized by addition of antioxidant substances.

Solubility in water = assay type: physicochemical
From the text: as §1

[2] = tested on: cells of human adenocarcinoma of the nasopharynx (KB); assay: "KB" test, Cell Culture Screen KB Protocol 1.600; assay type: cell-based; conditions: 3 days after drug addition, average
Procedure: The in vitro "KB" tests were carried out according to "Cell Culture Screen KB--Protocol 1.600" (id., p. 17) using cells of human adenocarcinoma of the nasopharynx. Test results are expressed as the dose that inhibits cell growth to 50% of control growth by 3 days after drug addition.

Melanotic Melanoma B 16 = assay: "Bl" test, Melanotic Melanoma B 16 Protocol 1.300; assay type: in vivo; conditions: mice, subcutaneous, water solution
Procedure: The in vivo "Bl" were carried out on mice according to "Melanotic Melanoma B 16--Protocol 1.300" (id., p. 11) with reporting and evaluation procedures identical to those of the "PS" test.
as §1

Structure (SMILES)	RANGE OF % T/C ([1]; DOSE 0.04)	RANGE OF % T/C ([1]; DOSE 0.07)	RANGE OF % T/C ([1]; DOSE 0.11)	RANGE OF % T/C ([1]; DOSE 0.16)	RANGE OF % T/C ([1]; DOSE 0.25)	RANGE OF % T/C ([1]; DOSE 0.50)	RANGE OF % T/C ([1]; DOSE 1.00)	RANGE OF % T/C ([1]; DOSE 2.00)	"PS" test activity, % T/C (survival of test versus control animals) ([1]; dose levels 0.02 to 2.0 mg/kg, subcutaneous, water solution)	Solubility in water (Solubility in water)	"KB" test ED 50 (dose that inhibits cell growth to 50% of control growth) [2]	"Bl" test activity, % T/C (Melanotic Melanoma B 16; doses 0.12 to 2.0 mg/kg)	"PS" test activity, % T/C ([1]; 0.04 to 2.0 mg/kg doses, subcutaneous, water solution)	"Bl" test activity, % T/C (Melanotic Melanoma B 16; 0.25 to 8.0 mg/kg doses)
COc1ccc(C[C@H]2C(=O)N[C@@H](C)C(=O)N(C)[C@@H]3C(=O)N(C)[C@@H](Cc4ccc(O)c(c4)Oc4ccc(cc4)[C@@H]3O)C(=O)N[C@H](C)C(=O)N[C@@H](C)C(=O)N2C)cc1 [bouvardin]	134 % T/C	139 % T/C	150 to 164 % T/C	158 % T/C	161 to 188 % T/C	135 to 186 % T/C	148 to 217 % T/C	167 to 205 % T/C	135 to 217 % T/C	partially soluble in water	about 4.3×10^-7 μg/L	134-152 % T/C	–	–
COc1ccc(C[C@H]2C(=O)N[C@@H](C)C(=O)N(C)[C@H]3Cc4ccc(cc4)Oc4cc(ccc4O)C[C@@H](C(=O)N[C@H](C)C(=O)N[C@@H](C)C(=O)N2C)N(C)C3=O)cc1 [deoxybouvardin]	–	–	–	–	–	–	–	–	–	partially soluble in water	1.9e-08 ng/mL	–	142-216 % T/C	133-175 % T/C

Reference: US4226856A, “Preparation and use of bouvardin and deoxybouvardin” (University Patents, Inc., priority 1978, dated 1980)
